Measured values reported in patent US7893074B2, “2, 4-pyrimidinediamines useful in the treatment of neoplastic diseases, inflammatory and immune system disorders” (Novartis AG, priority 2003, dated 2011).
Where “and” joins values, the source holds several entries; their conditions need not be identical. Equal values may be shown once. Read-outs that look alike come from different tables or passages of the source.

Experiments:
[1] = biological target: Focal Adhesion Kinase (FAK) (Homo sapiens, UniProt Q05397); experiment: FAK assay system (Focal Adhesion Kinase inhibition); format: biochemical
Sequence of Focal Adhesion Kinase (FAK) (Q05397 384-706): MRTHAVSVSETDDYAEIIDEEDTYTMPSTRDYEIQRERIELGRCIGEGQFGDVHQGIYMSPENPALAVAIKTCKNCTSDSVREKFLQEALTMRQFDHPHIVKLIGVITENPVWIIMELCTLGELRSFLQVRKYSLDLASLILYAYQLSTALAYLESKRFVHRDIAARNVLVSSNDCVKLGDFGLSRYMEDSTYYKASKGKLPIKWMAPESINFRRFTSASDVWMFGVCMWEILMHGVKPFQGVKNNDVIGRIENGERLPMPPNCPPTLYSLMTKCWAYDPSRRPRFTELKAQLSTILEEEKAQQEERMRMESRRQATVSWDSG

[2] = tested on: Mouse mammary carcinoma 4T1 cells; experiment: Anchorage-independent tumor cell growth assay; format: cell-based
Protocol: Cells are cultured for 2 h and inhibitors are added at various concentrations in a final concentration of 0.1% DMSO. After 48 h, cell growth is assayed with the cell counting kit-8 (Wako Pure Chemical), which uses a water soluble tetrazolium salt WST8. Twenty μL of the reagent is added into each well and cells are further cultured for 2 h. The optical density is measured at 450 nm.

Row | SMILES | IC50 ([1]; read-out: FAK IC50) | IC50 ([2]; Mus musculus, 4T1) [nM] | IC50 ([1]; FAK IC50) [nM] | IC50 [2] [nM] | IC50 ([1]; FAK inhibition IC50, FAK assay system) [nM]
1 | CNS(=O)(=O)c1ccccc1Nc1nc(Nc2cc(N3CCN(C)CC3)ccc2OC)ncc1Cl [Example 20-31] | 39 nM | 500 | – | – | –
2 | CNS(=O)(=O)c1ccccc1Nc1nc(Nc2cc(N3CCC(O)CC3)ccc2OC)ncc1Cl [Example 20-19] | 28 nM | 210 | – | – | –
3 | COc1cc(N2CCC(O)CC2)ccc1Nc1ncc(Cl)c(Nc2cccc3c2C(=O)N(C)C3)n1 [Example 12-3] | 2.3 nM | 250 | – | – | –
4 | CNS(=O)(=O)c1ccccc1Nc1nc(Nc2ccc(OC)cc2OC)ncc1Br [Example 2, 2-[5-Bromo-2-(2,4-dimethoxy-phenylamino)-pyrimidin-4-ylamino]-N-methyl-benzenesulfonamide] | 13 nM | – | – | – | –
5 | CNS(=O)(=O)c1ccccc1Nc1nc(Nc2cc(-c3ccc(OC)cc3)ccc2OC)ncc1Br [Example 3-56] | – | 150 | 28 | – | –
6 | CNC(=O)c1ccccc1Nc1nc(Nc2ccc(N3CCC(N4CCCC4)CC3)cc2OC)ncc1Cl [Example 7-25] | 13 nM and 2 nM | 730 | – | 570 | –
7 | COc1cc(N2CCN3CCOC[C@H]3C2)ccc1Nc1ncc(Cl)c(Nc2cccc3c2C(=O)N(C)C3)n1 [Example 12-6] | 2.6 nM | – | – | – | –
8 | COc1cc(OC2CCN(C)CC2)ccc1Nc1ncc(Cl)c(Nc2ccccc2S(=O)(=O)C(C)C)n1 [Example 28-19] | – | – | – | 140 | –
9 | CNC(=O)c1ccccc1Nc1nc(Nc2cc(N3CCC(NC)C3)ccc2OC)ncc1Cl (centres unmarked) [Example 7-23] | 1.4 nM | 250 | – | – | –
10 | CCCS(=O)(=O)c1ccccc1Nc1nc(Nc2ccc(N3CCCC(C(N)=O)C3)cc2OC)ncc1Cl (centres unmarked) [Example 26-14] | 5 nM | 190 | – | – | –
11 | CNS(=O)(=O)c1ccccc1Nc1nc(Nc2ccc(N3CCC(N4CCN(C)CC4)CC3)cc2OC)ncc1Cl [Example 20-16] | 7.5 nM | 60 | – | – | –
12 | CNS(=O)(=O)c1ccccc1Nc1nc(Nc2cc(N3CCC(N4CCCCC4)CC3)ccc2OC)ncc1Cl [Example 20-32] | 13 nM | 110 | – | – | –
13 | CNS(=O)(=O)c1ccccc1Nc1nc(Nc2cccc3c2CCC3)ncc1Br [Example 3-12] | – | 1000 | 5.4 | – | 1 to 5
14 | CCN1Cc2cccc(Nc3nc(Nc4ccc(N5CCN(C)CC5)cc4OC)ncc3Cl)c2C1=O [Example 13-1] | 65 nM | 810 | – | – | –
15 | COc1cc(N2CCC(N3CCN(C)CC3)CC2)ccc1Nc1ncc(Cl)c(Nc2cccc3c2C(=O)N(C)C3)n1 [Example 12-4] | 1.1 nM | 140 | – | – | –
16 | CCCOc1cc(N2CCN(C)CC2)ccc1Nc1ncc(Cl)c(Nc2ccccc2S(=O)(=O)NC)n1 [Example 20-14] | 33 nM | 320 | – | – | –
17 | CCOc1ccc(OC)cc1Nc1ncc(Br)c(Nc2ccccc2S(=O)(=O)NC)n1 [Example 3-61] | 12 nM | > 10000 | – | – | –
18 | CNC(=O)c1ccccc1Nc1nc(Nc2ccc(N3CCC[C@@H](C(N)=O)C3)cc2OC)ncc1Cl [Example 7-17] | – | – | 4.3 | – | –
19 | CNS(=O)(=O)c1ccccc1Nc1nc(Nc2cc(N3CCC(N4CCN(C)CC4)CC3)ccc2OC)ncc1Cl [Example 20-18] | 15 nM | 810 | – | – | –
20 | CNC(=O)c1ccccc1Nc1nc(Nc2cc(N3CCC(N4CCN(C)CC4)CC3)ccc2OC)ncc1Cl [Example 7-19] | 13 nM | 330 | – | – | –
21 | CNC(=O)c1cc(N2CCCC2)ccc1Nc1nc(Nc2ccc(N3CCOCC3)cc2OC)ncc1Cl [Example 15-3] | – | – | – | 1670 | –
22 | COc1cc(OCC(C)(C)CN(C)C)ccc1Nc1ncc(Cl)c(Nc2ccccc2S(=O)(=O)NC(C)C)n1 [Example 19-24] | – | 120 | 1.8 | – | –
23 | CNS(=O)(=O)c1ccccc1Nc1nc(Nc2ccc(OC3CCN(C)C3)cc2OC)ncc1Cl (centres unmarked) [Example 20-29] | – | – | – | 50 | –
24 | CNC1CCN(c2ccc(Nc3ncc(Cl)c(Nc4ccccc4S(=O)(=O)NC)n3)c(OC)c2)C1 (centres unmarked) [Example 20-17] | 2 nM | 140 | – | – | –
